According to patent US6784137B2, “6-aryl-4-aminopicolinates and their use as herbicides” (Dow AgroSciences LLC, priority 2001, dated 2004):

Legend:
[1] = system: Barnyardgrass (Echinochloa crus-galli); experiment: Postemergence herbicidal activity, greenhouse spray; assay type: in vivo; conditions: Echinochloa crus-galli, post-emergence, 336 h, Table 1, visual score after 2 weeks, read-out: Post-emergent % control ECHCG
Outline: (§1)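 Test compounds, dissolved in 97:3 acetone/DMSO and serially diluted in an aqueous surfactant and crop oil mixture, were applied postemergence to young plants at the one- to two-true-leaf stage, with carrier-only sprays as controls.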

[2] = system: Cocklebur (Xanthium strumarium); experiment: as above; assay type: in vivo; conditions: Xanthium strumarium, post-emergence, 336 h, Table 1, visual score after 2 weeks, read-out: Post-emergent % control XANST
Outline: as §1

[3] = system: Lambsquarter (Chenopodium album); experiment: as above; assay type: in vivo; conditions: Chenopodium album, post-emergence, 336 h, Table 1, visual score after 2 weeks, read-out: Post-emergent % control CHEAL
Outline: as §1

[4] = system: Pigweed (redroot) (Amaranthus retroflexus); experiment: as above; assay type: in vivo; conditions: visual score after 2 weeks; for pest or weed control at 62.5 µg/mL: Amaranthus retroflexus, post-emergence, 336 h, Table 3, rate 62.5 (unit inferred), read-out: Post-emergent % control AMARE; for Post-emergent % control AMARE: Table 4, rate 62.5 (unit not given)
Outline: as §1

[5] = system: Yellow nutsedge (Cyperus esculentus); experiment: as above; assay type: in vivo; conditions: Cyperus, post-emergence, 336 h, Table 1, visual score after 2 weeks, read-out: Post-emergent % control CYPES
Outline: as §1

[6] = system: Wheat(var. Merica) (Triticum aestivum); experiment: Postemergence herbicidal activity, selectivity to wheat; assay type: in vivo; conditions: post-emergence, 336 h, Table 3, rate 62.5 (unit inferred), crop injury, read-out: Post-emergent % control TRZAS
Method: (§2) Seeds of the desired test plant species were planted in Grace-Sierra MetroMix® 306 planting mixture, which typically has a pH of 6.0 to 6.8 and an organic matter content of about 30 percent, in plastic pots with a surface area of 64 square centimeters. When required to ensure good germination and healthy plants, a fungicide treatment and/or other chemical or physical treatment was applied. The plants were grown for 7-21 days in a greenhouse with an approximate 15 hr photoperiod which was maintained at about 23-29° C. during the day and 22-28° C. during the night. Nutrients and water were added on a regular basis and supplemental lighting was provided with overhead metal halide 1000-Watt lamps as necessary. The plants were employed for testing when they reached the first or second true leaf stage. A weighed amount, determined by the highest rate to be tested, of each test compound was placed in a 20 mL glass vial and was dissolved in 4 mL of a 97:3 v/v (volume/volume) mixture of acetone and dimethyl sulfoxide (DMSO) to obtain concentrated stock solutions. […] The concentrated stock solutions obtained were diluted with an aqueous mixture containing acetone, water, isopropyl alcohol, DMSO, At plus 411 F crop oil concentrate, and Triton X-155 surfactant in a 48.5:39:10:1.5:1.0:0.02 v/v ratio to obtain spray solutions of known concentration. The solutions containing the highest concentration to be tested were prepared by diluting 2 mL aliquots of the stock solution with 13 mL of the mixture and lower concentrations were prepared by serial dilution of the stock solution. Approximately 1.5 mL aliquots of each solution of known concentration were sprayed evenly onto each of the test plant pots using a DeVilbiss atomizer driven by compressed air pressure of […] (140 to 280 kiloPascals) to obtain thorough coverage of each plant. Control plants were sprayed in the same manner with the aqueous mixture. In this test an application rate of 1 ppm results in the application of approximately 1 g/Ha. The treated plants and control plants were placed in a greenhouse as described above and watered by sub-irrigation to prevent wash-off of the test compounds. After 2 weeks the condition of the test plants as compared with that of the untreated plants was determined visually and scored on a scale of 0 to 100 percent where 0 corresponds to no injury and 100 corresponds to complete kill.

[7] = system: Corn (#14 3377) (Zea mays); experiment: Postemergence herbicidal activity, selectivity to corn; assay type: in vivo; conditions: post-emergence, 336 h, Table 4, rate 62.5 (unit inferred), crop injury, read-out: Post-emergent % control ZEAMX
Method: as §2

[8] = system: Crabgrass(large) (Digitaria sanguinalis); experiment: Preemergence herbicidal activity, soil spray; assay type: in vivo; conditions: Digitaria sanguinalis, pre-emergence, 504 h; Table 5; rate 560 ppm; visual score after 3 weeks; read-out: Pre-emergent % control DIGSA
Outline: (§3)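 Preemergence soil application onto freshly seeded pots. Carrier: 99.9:0.1 water:Tween 155 after acetone/DMSO solubilisation. Greenhouse, ~15 hr photoperiod, supplemental metal halide lighting, regular nutrients and top watering.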

[9] = system: Giant Foxtail (Setaria faberi); experiment: Preemergence herbicidal activity, soil spray; assay type: in vivo; conditions: Setaria faberi, pre-emergence, 504 h, Table 5; rate 560 ppm; visual score after 3 weeks; read-out: Pre-emergent % control SETFA
Outline: as §3

[10] = system: Lambsquarter (Chenopodium album); experiment: Preemergence herbicidal activity, soil spray; assay type: in vivo; conditions: Chenopodium album, pre-emergence, 504 h; Table 5; rate 560 ppm; visual score after 3 weeks, 100 complete kill or no germination; read-out: Pre-emergent % control CHEAL
Outline: as §3

[11] = system: Pigweed (redroot) (Amaranthus retroflexus); experiment: Preemergence herbicidal activity, soil spray; assay type: in vivo; conditions: Amaranthus retroflexus, pre-emergence, 504 h; Table 5; rate 560 ppm; visual score after 3 weeks; read-out: Pre-emergent % control AMARE
Outline: as §3

melting point [°C]	SMILES	pest or weed control at 500 ppm ([1]; rate 500 ppm) [%]	pest or weed control at 500 ppm ([2]; rate 500 ppm, 0 no injury, 100 complete kill) [%]	pest or weed control at 500 ppm ([3]; rate 500 ppm) [%]	pest or weed control at 62.5 µg/mL [4] [%]	Post-emergent % control AMARE [4] [%]	pest or weed control at 500 ppm ([5]; rate 500 ppm) [%]	pest or weed control at 62.5 µg/mL [6] [%]	pest or weed control at 62.5 µg/mL [7] [%]	pest or weed control at 560 ppm [8] [%]	pest or weed control at 560 ppm [9] [%]	pest or weed control at 560 ppm [10] [%]	pest or weed control at 560 ppm [11] [%]	pest or weed control at 250 ppm ([1]; rate 250 ppm) [%]	pest or weed control at 250 ppm ([2]; rate 250 ppm) [%]	pest or weed control at 250 ppm ([3]; rate 250 ppm) [%]	pest or weed control at 250 ppm ([5]; rate 250 ppm) [%]
154 to 156	COC(=O)c1nc(-c2ccc(C)c(C)c2)cc(N)c1Cl [Compound 12, methyl 4-amino-3-chloro-6-(3,4-dimethylphenyl)pyridine-2-carboxylate]	95	100	95	70	70	30	0	10	40	30	98	100				
98	COC(=O)c1nc(-c2cccc(C)c2)cc(N)c1Cl [Compound 21, Methyl 4-amino-3-chloro-6-(3-methylphenyl)pyridine-2-carboxylate]				70	70		10	0	100	80	100	100	0	100	100	70
